Data taken from patent publication US20260053811A1, “METHODS OF TREATING HYPERTENSION IN OBESE SUBJECTS” (Mineralys Therapeutics, Inc., priority 2022, published 2026).

Test system: hypertensive subjects
Test: Seated automated office blood pressure (AOBP) in randomized, placebo-controlled, dose-ranging study
Assay type: in vivo, human
Settings: 100 mg QD, FAS; for Seated AOBP DBP change from baseline (CFB), Mean / Seated AOBP DBP, Mean / Seated AOBP SBP change from baseline (CFB), Mean / Seated AOBP SBP, Mean: Part 2
Method: A randomized, double-blinded, placebo-controlled, dose-ranging, multicenter study was conducted to evaluate the effect of orally administered Compound A HBr on blood pressure for the treatment of hypertension in male and female subjects ≥18 years of age.
The study consists of two parts. For enrollment into Part 1 of the study, a subject's value of plasma renin activity (PRA) must be ≤1 ng/mL/h based on morning measurement. If the value of PRA >1 ng/mL/h based on morning measurement, then subjects may be eligible to enter Part 2 of the study.
For Part 1, 163 enrolled subjects ≥18 years of age were randomized into 6 equal treatment groups (1:1:1:1:1:1) to 12.5 mg BID, 25 mg BID, 12.5 mg QD, 50 mg QD, 100 mg QD, or placebo. After a review of interim clinical data, the 2 lowest dose levels (12.5 mg QD and 12.5 mg BID) were stopped for future randomization due to a lack of consistent meaningful reduction of blood pressure, but the patients randomized to that point remained in the study through completion. Thus, after the review of interim clinical data, subjects were randomized into 4 equal treatment groups (1:1:1:1) to 25 mg BID, 50 mg QD, 100 mg QD, or placebo.
For Part 2, 36 enrolled subjects ≥18 years of age were randomized (5:1) to either 100 mg QD Compound A HBr or placebo such that the Compound A HBr treatment group consisted of approximately 30 subjects and the placebo treatment group will consist of approximately 6 subjects.
Subjects orally administered the assigned study drug (Compound A HBr or placebo) according to the assigned dosing regimen for 8 weeks beginning on Study Day 1. All subjects in Part 1 (regardless of dosing group) received BID dosing to preserve the integrity of the blind; active drug is administered as the morning dose for all QD dose groups. Subjects returned to the research facility or were seen by the clinical investigator or approved home health care professional at the end of Study Weeks 1, 2, 3, 4, 5, 6, 7, and 8 (±2 days) for protocol-defined efficacy and safety assessments and procedures, assessment of adverse events (AEs), and confirmation of compliance with study drug usage. Subjects also completed a telephone visit and blood pressure (BP) check at home approximately 3 days post last dose of study drug. Subjects attended up to 14 full clinic visits, including a pre-Screening visit, a Screening/start of Placebo Run-in visit, a second visit during Placebo Run-in, a clinic visit to initiate the ABPM procedure, a Randomization visit, 8 weekly visits during double-blind treatment, and an end-of-study visit scheduled 4 weeks after the last study treatment for final efficacy and safety assessments.
An automated oscillometric sphygmomanometer device was used to measure the subjects' systolic and diastolic blood pressure in office after approximately 5 minutes of rest in the seated position.
The primary endpoint is the change in office-measured (mean of last 2 of 5 unattended measurements using an automated oscillometric sphygmomanometer device after approximately 5 minutes of rest in the seated position) systolic blood pressure (SBP) from baseline to the end of Study Week 8.
Secondary endpoints of this study were: • (a) Change in 24-hour ambulatory blood pressure monitoring (ABPM) parameters (systolic and diastolic) from baseline to the end of Study Week 7. • (b) Change in office-measured SBP from baseline to the end of Study Weeks 1, 2, 3, 4, 5, 6, and 7. • (c) Change in office-measured diastolic blood pressure (DBP) from baseline to the end of Study Weeks 1, 2, 3, 4, 5, 6, 7, and 8. • (d) Proportion of subjects who achieve office-measured BP of ≤130/80 mm Hg by the end of Study Week 8.

**Q.** For `CC(=O)N[C@H]1CC[C@H](NC(=O)CN2CCN(c3nncc(-c4ccc(C)cc4)n3)CC2)CC1` [Compound A HBr], which “Seated AOBP DBP change from baseline (CFB), Mean (SD)” value (“Seated AOBP DBP change … (SD)” below) (Week 4, Part 1) is on record?
**A.** Its value is −6.36 (6.75) mmHg.

**Q.** What about the “Seated AOBP DBP, Mean (SD)” value (Week 4, Part 1) of the same molecule?
**A.** Its value is 71.60 (8.62) mmHg.

**Q.** What about the “Seated AOBP SBP change from baseline (CFB), Mean (SD)” value (shortened to “Seated AOBP SBP change … (SD)”) (Week 4, Part 1) of the same molecule?
**A.** Its value is −14.60 (11.66) mmHg.

**Q.** And the “Seated AOBP SBP, Mean (SD)” value (Week 4, Part 1)?
**A.** The value was 129.76 (12.66) mmHg.

**Q.** And the “Seated AOBP DBP change from baseline (CFB), Mean” value (Week 4)?
**A.** Its value is −6.92 mmHg.

**Q.** And the “Seated AOBP DBP, Mean” value (Week 4)?
**A.** Its value is 71.36 mmHg.

**Q.** And the “Seated AOBP SBP change from baseline (CFB), Mean” value (Week 4)?
**A.** Its value is −16.04 mmHg.

**Q.** What about the “Seated AOBP SBP, Mean” value (Week 4) of the same molecule?
**A.** Its value is 125.44 mmHg.

**Q.** What about the “Seated AOBP DBP change … (SD)” value (Week 5, Part 1) of the same molecule?
**A.** The value was −5.36 (8.12) mmHg.

**Q.** What about the “Seated AOBP DBP, Mean (SD)” value (Week 5, Part 1) of the same molecule?
**A.** Its value is 72.60 (11.27) mmHg.

**Q.** And the “Seated AOBP SBP change … (SD)” value (Week 5, Part 1)?
**A.** Its value is −13.40 (16.59) mmHg.

**Q.** And the “Seated AOBP SBP, Mean (SD)” value (Week 5, Part 1)?
**A.** Its value is 130.96 (14.84) mmHg.

**Q.** What about the “Seated AOBP DBP change from baseline (CFB), Mean” value (Week 5) of the same molecule?
**A.** Its value is −6.35 mmHg.

**Q.** What about the “Seated AOBP DBP, Mean” value (Week 5) of the same molecule?
**A.** The value was 71.31 mmHg.

**Q.** And the “Seated AOBP SBP change from baseline (CFB), Mean” value (Week 5)?
**A.** The value was −12.87 mmHg.

**Q.** And the “Seated AOBP SBP, Mean” value (Week 5)?
**A.** Its value is 127.92 mmHg.

**Q.** What about the “Seated AOBP DBP change … (SD)” value (Week 6, Part 1) of the same molecule?
**A.** The value was −3.33 (7.96) mmHg.

**Q.** And the “Seated AOBP DBP, Mean (SD)” value (Week 6, Part 1)?
**A.** The value was 74.77 (10.12) mmHg.

**Q.** And the “Seated AOBP SBP change … (SD)” value (Week 6, Part 1)?
**A.** Its value is −6.62 (15.69) mmHg.

**Q.** What about the “Seated AOBP SBP, Mean (SD)” value (Week 6, Part 1) of the same molecule?
**A.** Its value is 138.73 (14.13) mmHg.

**Q.** What about the “Seated AOBP DBP change from baseline (CFB), Mean” value (Week 6) of the same molecule?
**A.** Its value is −7.25 mmHg.

**Q.** And the “Seated AOBP DBP, Mean” value (Week 6)?
**A.** The value was 70.65 mmHg.

**Q.** What about the “Seated AOBP SBP change from baseline (CFB), Mean” value (Week 6) of the same molecule?
**A.** The value was −13.29 mmHg.

**Q.** What about the “Seated AOBP SBP, Mean” value (Week 6) of the same molecule?
**A.** The value was 127.58 mmHg.

**Q.** And the “Seated AOBP DBP change … (SD)” value (Week 7, Part 1)?
**A.** Its value is −4.12 (8.55) mmHg.

**Q.** And the “Seated AOBP DBP, Mean (SD)” value (Week 7, Part 1)?
**A.** Its value is 73.48 (11.08) mmHg.

**Q.** What about the “Seated AOBP SBP change … (SD)” value (Week 7, Part 1) of the same molecule?
**A.** The value was −11.04 (16.75) mmHg.

**Q.** And the “Seated AOBP SBP, Mean (SD)” value (Week 7, Part 1)?
**A.** The value was 134.32 (18.32) mmHg.

**Q.** And the “Seated AOBP DBP change from baseline (CFB), Mean” value (Week 7)?
**A.** The value was −6.13 mmHg.

**Q.** And the “Seated AOBP DBP, Mean” value (Week 7)?
**A.** The value was 71.61 mmHg.

**Q.** And the “Seated AOBP SBP change from baseline (CFB), Mean” value (Week 7)?
**A.** The value was −11.66 mmHg.

**Q.** What about the “Seated AOBP SBP, Mean” value (Week 7) of the same molecule?
**A.** The value was 128.75 mmHg.

**Q.** What about the “LSM Δ from Placebo, change from baseline in seated AOBP SBP (MMRM)” value (Week 8, Part 1) of the same molecule?
**A.** Its value is −7.81 mmHg.

**Q.** What about the “LSM Δ with Placebo, seated AOBP DBP (MMRM)” value (Week 8, Part 1) of the same molecule?
**A.** Its value is −4.11 mmHg.

**Q.** What about the “Modelled (MMRM) LSM (SEM) change from baseline, seated AOBP DBP” value (Week 8, Part 1) of the same molecule?
**A.** The value was −5.75 (1.77) mmHg.

**Q.** And the “Modelled (MMRM) LSM (SEM) change from baseline, seated AOBP SBP” value (Week 8, Part 1)?
**A.** The value was −11.92 (2.77) mmHg.

**Q.** What about the “Seated AOBP DBP change … (SD)” value (Week 8, Part 1) of the same molecule?
**A.** The value was −5.46 (7.85) mmHg.

**Q.** What about the “Seated AOBP DBP, Mean (SD)” value (Week 8, Part 1) of the same molecule?
**A.** The value was 73.00 (9.43) mmHg.

**Q.** And the “Seated AOBP SBP change … (SD)” value (Week 8, Part 1)?
**A.** The value was −14.08 (13.26) mmHg.

**Q.** And the “Seated AOBP SBP, Mean (SD)” value (Week 8, Part 1)?
**A.** The value was 131.28 (14.13) mmHg.

**Q.** And the “Subjects with seated AOBP SBP/DBP ≤130/80 mmHg: No” value (Week 8, Part 1)?
**A.** Its value is 21 (70.0) n (%).

**Q.** And the “Subjects with seated AOBP SBP/DBP ≤130/80 mmHg: Yes” value (Week 8, Part 1)?
**A.** Its value is 9 (30.0) n (%).

**Q.** What about the “Seated AOBP DBP change from baseline (CFB), Mean” value (Week 8) of the same molecule?
**A.** Its value is −5.68 mmHg.

**Q.** What about the “Seated AOBP DBP, Mean” value (Week 8) of the same molecule?
**A.** Its value is 72.17 mmHg.

**Q.** And the “Seated AOBP SBP change from baseline (CFB), Mean” value (Week 8)?
**A.** Its value is −11.20 mmHg.

**Q.** What about the “Seated AOBP SBP, Mean” value (Week 8) of the same molecule?
**A.** Its value is 129.30 mmHg.
